Molecular target: T1, CFTR (Homo sapiens, UniProt P13569, DEL508-508)
T1 construct: Primary CF airway epithelial cells were obtained from the UNC Cystic Fibrosis Tissue Procurement and Cell Culture Core; host or cells: primary CF airway epithelial cells, differentiated at the air-liquid interface
Experiment: Equivalent current assay in primary CF airway epithelial cells (NAUC, combination with 1st site corrector FDL169 or VX-809)
Format: cell-based
Conditions: 37° C., 24 h

[1] = test compound 10 μM in combination with 1st site corrector VX-809 (3 μM)
[2] = test compound 1 μM in combination with 1st site corrector VX-809 (3 μM)
[3] = test compound 3 μM in combination with 1st site corrector VX-809 (3 μM)
[4] = test compound 1 μM in combination with 1st site corrector FDL169 (3 μM)
[5] = test compound 3 μM in combination with 1st site corrector FDL169 (3 μM)
[6] = test compound 10 μM in combination with 1st site corrector FDL169 (3 μM)

T1 sequence (P13569 with tags, fused parts or gaps DEL508-508): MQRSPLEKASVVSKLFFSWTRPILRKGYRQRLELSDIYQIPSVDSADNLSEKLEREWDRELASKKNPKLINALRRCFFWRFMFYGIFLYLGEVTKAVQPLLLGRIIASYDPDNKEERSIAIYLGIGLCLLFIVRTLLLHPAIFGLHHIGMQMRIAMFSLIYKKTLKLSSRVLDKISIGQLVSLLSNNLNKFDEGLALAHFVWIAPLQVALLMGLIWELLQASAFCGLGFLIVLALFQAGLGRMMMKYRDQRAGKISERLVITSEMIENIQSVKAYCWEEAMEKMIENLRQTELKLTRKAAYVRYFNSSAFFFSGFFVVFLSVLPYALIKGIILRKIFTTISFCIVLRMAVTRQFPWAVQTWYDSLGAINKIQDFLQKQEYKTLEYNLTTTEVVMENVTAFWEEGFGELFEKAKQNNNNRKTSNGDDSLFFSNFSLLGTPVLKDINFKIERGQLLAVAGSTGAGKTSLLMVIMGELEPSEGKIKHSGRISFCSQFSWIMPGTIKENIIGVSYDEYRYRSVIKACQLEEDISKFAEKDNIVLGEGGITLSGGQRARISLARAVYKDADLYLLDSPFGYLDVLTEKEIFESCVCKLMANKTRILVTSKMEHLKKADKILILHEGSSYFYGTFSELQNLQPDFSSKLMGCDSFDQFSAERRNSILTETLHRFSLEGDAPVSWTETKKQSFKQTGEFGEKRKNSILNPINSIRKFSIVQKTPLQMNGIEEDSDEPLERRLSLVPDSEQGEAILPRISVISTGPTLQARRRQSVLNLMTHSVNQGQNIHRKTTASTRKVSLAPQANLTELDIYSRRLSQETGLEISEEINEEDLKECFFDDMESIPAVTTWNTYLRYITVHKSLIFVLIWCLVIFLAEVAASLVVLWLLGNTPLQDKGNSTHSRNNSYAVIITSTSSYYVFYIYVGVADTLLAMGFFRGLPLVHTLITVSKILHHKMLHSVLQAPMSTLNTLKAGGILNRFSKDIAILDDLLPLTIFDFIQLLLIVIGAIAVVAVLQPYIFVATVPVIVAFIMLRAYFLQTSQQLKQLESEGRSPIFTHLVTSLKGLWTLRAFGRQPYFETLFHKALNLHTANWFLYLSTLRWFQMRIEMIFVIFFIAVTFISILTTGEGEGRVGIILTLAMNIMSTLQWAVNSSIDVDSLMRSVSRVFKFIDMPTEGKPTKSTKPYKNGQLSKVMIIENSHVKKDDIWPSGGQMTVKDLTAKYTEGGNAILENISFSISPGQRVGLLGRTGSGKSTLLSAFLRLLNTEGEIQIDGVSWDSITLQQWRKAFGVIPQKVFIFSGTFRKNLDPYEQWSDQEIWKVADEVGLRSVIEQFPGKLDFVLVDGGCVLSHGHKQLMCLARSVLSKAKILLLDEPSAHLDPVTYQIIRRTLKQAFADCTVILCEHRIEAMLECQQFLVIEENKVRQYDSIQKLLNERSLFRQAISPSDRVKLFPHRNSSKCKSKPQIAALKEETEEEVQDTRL

SMILES | Nauc @ 10 μM [1] | Nauc @ 1 μM [2] | Nauc @ 3 μM [3] | other results
O=C(Nc1cc(Cl)cc(Cl)c1)C1C(C(F)(F)c2cccc(Cl)c2)NC2(C(=O)Nc3c(Cl)cc(Cl)cc32)C1C(=O)O (stereo not drawn) [Example 68.a] | + (NAUC “+” refers to an observed NAUC <140% of positive control) | – | – | –
CN(O)C(=O)C1C(C(=O)Nc2cc(Cl)cc(Cl)c2)C2CC(F)(F)CN2C12C(=O)Nc1c(Cl)cc(Cl)cc12 (single isomer, unassigned) [Example 225b, 5,7-dichloro-N1′-(3,5-dichlorophenyl)-6′,6′-difluoro-N2′-hydroxy-N2′-methyl-2-oxo-1′,2′,5′,6′,7′,7a′-hexahydrospiro[indoline-3,3′-pyrrolizine]-1′,2′-dicarboxamide] | +++ (NAUC “+++” refers to an observed NAUC>170% of positive control) | + (NAUC “+” refers to an observed NAUC <140% of positive control) | +++ (NAUC “+++” refers to an observed NAUC>170% of positive control) | –
CN(C(=O)[C@H]1[C@H]2CC(F)(F)CN2[C@]2(C(=O)Nc3c(Cl)cc(Cl)cc32)[C@H]1C(=O)NS(C)(=O)=O)c1cc(Cl)cc(Cl)c1 (relative stereo) [Example 231, rel-(1′R,2′S,3R,7a′R)-5,7-dichloro-N1′-(3,5-dichlorophenyl)-6′,6′-difluoro-N1′-methyl-N2′-(methylsulfonyl)-2-oxo-1′,2′,5′,6′,7′,7a′-hexahydrospiro[indoline-3,3′-pyrrolizine]-1′,2′-dicarboxamide] | + (NAUC “+” refers to an observed NAUC <140% of positive control) | – | – | –
O=C(Nc1cncc(C(F)(F)F)n1)C1C2CC3(CC3)CN2C2(C(=O)Nc3c(Cl)cc(Cl)cc32)C1C(=O)O (stereo not drawn) [Example 2] | ++ (NAUC “++” refers to an observed NAUC 170-140% of positive control) | – | + (NAUC “+” refers to an observed NAUC <140% of positive control) | –
O=C(Nc1cc(Cl)cc(Cl)c1)C1CN(S(=O)(=O)CCc2ccccc2)C2(C(=O)Nc3c(Cl)cc(Cl)cc32)C1C(=O)O (stereo not drawn) [Example 25] | ++ (NAUC “++” refers to an observed NAUC 170-140% of positive control) | – | + (NAUC “+” refers to an observed NAUC <140% of positive control) | –
Cc1ccccc1CCNC(=O)C1C2CC(F)(F)CN2C2(C(=O)Nc3c(Cl)cc(Cl)cc32)C1C(=O)O (stereo not drawn) [Example 47] | +++ (NAUC “+++” refers to an observed NAUC>170% of positive control) | – | ++ (NAUC “++” refers to an observed NAUC 170-140% of positive control) | –
O=C(Nc1cccc(-c2ccccc2)c1)[C@H]1[C@H]2CC(F)(F)CN2[C@]2(C(=O)Nc3c(Cl)cc(Cl)cc32)[C@H]1C(=O)O [Example 124] | – | +++ (NAUC “+++” refers to an observed NAUC>170% of positive control) | +++ (NAUC “+++” refers to an observed NAUC>170% of positive control) | –
O=C(O)[C@H]1[C@@H](C(=O)N(c2cc(Cl)cc(Cl)c2)C2CC2)[C@H]2CC(F)(F)CN2[C@]12C(=O)Nc1c(Cl)cc(Cl)cc12 [Example 116] | ++ (NAUC “++” refers to an observed NAUC 170-140% of positive control) | +++ (NAUC “+++” refers to an observed NAUC>170% of positive control) | +++ (NAUC “+++” refers to an observed NAUC>170% of positive control) | –
O=C(Nc1ccc2scnc2c1)[C@H]1[C@H]2CC(F)(F)CN2[C@]2(C(=O)Nc3c(Cl)cc(Cl)cc32)[C@H]1C(=O)O [Example 128] | – | + (NAUC “+” refers to an observed NAUC <140% of positive control) | + (NAUC “+” refers to an observed NAUC <140% of positive control) | –
O=C(Nc1cc(Cl)cc(Cl)c1)C1CN(CC(F)(F)F)C2(C(=O)Nc3c(Cl)cc(Cl)cc32)C1C(=O)O (stereo not drawn) [Example 79b] | ++ (NAUC “++” refers to an observed NAUC 170-140% of positive control) | + (NAUC “+” refers to an observed NAUC <140% of positive control) | + (NAUC “+” refers to an observed NAUC <140% of positive control) | –
Cc1cccc(C(F)(F)C2NC3(C(=O)Nc4c(Cl)cc(Cl)cc43)C(C(=O)O)C2C(=O)Nc2cc(Cl)cc(Cl)c2)c1 (stereo not drawn) [Example 62] | +++ (NAUC “+++” refers to an observed NAUC>170% of positive control) | – | – | –
Cn1cc2cc(NC(=O)[C@H]3[C@H]4CC(F)(F)CN4[C@]4(C(=O)Nc5c(Cl)cc(Cl)cc54)[C@H]3C(=O)O)ccc2n1 [Example 143] | – | – | – | Nauc @ 1 μM [4]: + (NAUC “+” refers to an observed NAUC <140% of positive control); Nauc @ 3 μM [5]: + (NAUC “+” refers to an observed NAUC <140% of positive control)
CN(C(=O)[C@H]1[C@H]2CC(F)(F)CN2[C@]2(C(=O)Nc3c(Cl)cc(Cl)cc32)[C@H]1C(=O)O)c1ccccc1-c1ccccc1 [Example 162] | – | – | – | Nauc @ 1 μM [4]: +++ (NAUC “+++” refers to an observed NAUC>170% of positive control); Nauc @ 3 μM [5]: +++ (NAUC “+++” refers to an observed NAUC>170% of positive control); Nauc @ 10 μM [6]: +++ (NAUC “+++” refers to an observed NAUC>170% of positive control)
O=C(Nc1cccc(O)c1)C1C2CC(F)(F)CN2C2(C(=O)Nc3c(Cl)cc(Cl)cc32)C1C(=O)O (stereo not drawn) [Example 76.a] | + (NAUC “+” refers to an observed NAUC <140% of positive control) | – | – | –
O=C(Nc1cc(Cl)cc(Cl)c1)[C@H]1[C@H]2CCCN2[C@]2(C(=O)Nc3c(Cl)cc(Cl)cc32)[C@H]1C(=O)NN1CCOCC1 (relative stereo) [Example 243, (1′R,2′S,7a′R)-5,7-dichloro-N1′-(3,5-dichlorophenyl)-N2′-morpholino-2-oxo-1′,2′,5′,6′,7′,7a′-hexahydrospiro dicarboxamide] | – | + (NAUC “+” refers to an observed NAUC <140% of positive control) | + (NAUC “+” refers to an observed NAUC <140% of positive control) | –
O=C(Nc1cc(Cl)cc(Cl)c1)C1CN(C(=O)CCc2ccccc2)C2(C(=O)Nc3c(Cl)cc(Cl)cc32)C1C(=O)O (stereo not drawn) [Example 24] | + (NAUC “+” refers to an observed NAUC <140% of positive control) | – | +++ (NAUC “+++” refers to an observed NAUC>170% of positive control) | –
O=C(Nc1cccc2c1CCCC2)[C@H]1[C@H]2CC(F)(F)CN2[C@]2(C(=O)Nc3c(Cl)cc(Cl)cc32)[C@H]1C(=O)O [Example 131] | – | +++ (NAUC “+++” refers to an observed NAUC>170% of positive control) | +++ (NAUC “+++” refers to an observed NAUC>170% of positive control) | –
O=C(O)[C@H]1[C@@H](C(=O)N(c2cc(Cl)cc(Cl)c2)C2CCCC2)[C@H]2CC(F)(F)CN2[C@]12C(=O)Nc1c(Cl)cc(Cl)cc12 [Example 175] | – | – | – | Nauc @ 1 μM [4]: +++ (NAUC “+++” refers to an observed NAUC>170% of positive control); Nauc @ 3 μM [5]: +++ (NAUC “+++” refers to an observed NAUC>170% of positive control); Nauc @ 10 μM [6]: +++ (NAUC “+++” refers to an observed NAUC>170% of positive control)
CC(=O)N1C(C(C)C)C(C(=O)Nc2cc(Cl)cc(Cl)c2)C(C(=O)O)C12C(=O)Nc1c(Cl)cc(Cl)cc12 (stereo not drawn) [Example 38] | ++ (NAUC “++” refers to an observed NAUC 170-140% of positive control) | – | + (NAUC “+” refers to an observed NAUC <140% of positive control) | –

— patent US20230055237A1, “COMPOUNDS AND METHODS FOR THE TREATMENT OF CYSTIC FIBROSIS” (Flatley Discovery Lab, LLC, priority 2019, published 2023)
